Data reported in patent EP0527889B1, “QUINOLIZINONE TYPE COMPOUNDS” (priority 1990, dated 1991).
In brackets after ≈: the same amount, converted by molar mass. Counter-ions that a name gives are not always drawn.

Key:
Experiment in all cases: In vitro antibacterial activity, MIC by agar dilution
Assay type in all cases: cell-based
Conditions in all cases: BHI agar, 35-37°C, 20-24 hours, unit assumed
[1] = system: Pseudomonas cepacia 296I
Description: (§1) Each plate was inoculated with 1:100 (or 1:10 for slow growing strains, primarily Micrococcus and Streptococcus) dilutions of up to 32 different microorganisms, using a Steers replicator block calibrated to deliver approximately 10^4 colony forming units (CFUs). The inoculated plates were incubated at from about 35°C to about 37°C for approximately 20-24 hours. In addition, a control plate using BHI agar containing no test compound was prepared and incubated at the beginning and at the end of each test. Ciprofloxacin was used as the control antibiotic.
(§2) The MIC was defined as the lowest concentration of test compound yielding no growth (a slight haze or sparsely isolated colonies at the inoculum spot) as compared to the growth control containing no test compound.

[2] = system: Staphylococcus epidermidis 3519
Description: as §1, §2

[3] = system: Staphylococcus aureus 1775
Description: as §1, §2

[4] = system: Staphylococcus aureus NCTC 10649
Description: as §1, §2

[5] = system: Streptococcus agalactaciae CMX 508
Description: as §1, §2

[6] = system: Staphylococcus aureus CMX 553
Description: as §1, §2

[7] = system: Micrococcus luteus ATCC 9341
Description: as §1, §2

[8] = system: Klebsiella pneumoniae ATCC 8045
Description: as §1, §2

[9] = system: Staphylococcus aureus ATCC 6538P
Description: as §1, §2

[10] = system: Streptococcus pyrogenes 2548 INDUC
Description: as §1, §2

[11] = system: Escherichia coli KNK 437
Description: as §1, §2

[12] = system: Staphylococcus aureus 642A
Description: as §1, §2

[13] = system: Pseudomonas aeruginosa K799/WT
Description: as §1, §2

[14] = system: Escherichia coli DC-2
Description: as §1, §2

[15] = system: Pseudomonas aeruginosa A5007
Description: as §1, §2

[16] = system: Acinetobacter calcoaceticus CMX 669
Description: as §1, §2

[17] = system: Streptococcus bovis A5169
Description: as §1, §2

[18] = system: Staphylococcus aureus A5177
Description: as §1, §2

[19] = system: Pseudomonas aeruginosa K799/61
Description: as §1, §2

[20] = system: Streptococcus pyrogenes EES61
Description: as §1, §2

[21] = system: Pseudomonas aeruginosa BMH10
Description: as §1, §2

[22] = system: Enterococcus faecium ATCC 8043
Description: as §1, §2

[23] = system: Escherichia coli JUHL
Description: as §1, §2

[24] = system: Micrococcus luteus ATCC 4698
Description: as §1, §2

[25] = system: Streptococcus pyrogenes CONST
Description: as §1, §2

[26] = system: Escherichia coli H560
Description: as §1, §2

[27] = system: Enterobacter aerogenes ATCC 13048
Description: as §1, §2

[28] = system: Escherichia coli SS
Description: as §1, §2

[29] = system: Providencia stuartii CMX 640
Description: as §1, §2

[30] = system: Staphylococcus aureus A-5278
Description: as §1, §2

Compound | MIC values [1] [µg/mL] | MIC values [2] [µg/mL] | MIC values [4] [µg/mL] | MIC values [17] [µg/mL] | MIC values [18] [µg/mL] | MIC values [19] [µg/mL] | MIC values [20] [µg/mL] | MIC values [5] [µg/mL] | MIC values [21] [µg/mL] | MIC values [6] [µg/mL] | MIC values [22] [µg/mL] | MIC values [7] [µg/mL] | MIC values [23] [µg/mL] | MIC values [8] [µg/mL] | MIC values [9] [µg/mL] | MIC values [10] [µg/mL] | MIC values [24] [µg/mL] | MIC values [25] [µg/mL] | MIC values [11] [µg/mL] | MIC values [12] [µg/mL] | further results
NC1CCN(c2nc3c(-c4ccc(F)cc4F)cc(C(=O)O)c(=O)n3cc2F)C1 (centres unmarked) [Example 162, 2-(3-Aminopyrrolidin-1-yl)-9-(2,4-difluorophenyl)-3-fluoro-6H-6-oxopyrido[1,2-a]pyrimidine-7-carboxylic acid trifluoroacetic acid salt] | – | – | – | – | – | – | – | – | – | – | – | – | – | – | – | – | – | – | – | – | MIC values ([1]; trifluoroacetic acid salt): 6.2 µg/mL; MIC values ([2]; trifluoroacetic acid salt): 0.2 µg/mL; MIC values ([3]; trifluoroacetic acid salt): > 100 µg/mL; MIC values ([4]; trifluoroacetic acid salt): 0.1 µg/mL; MIC values ([5]; trifluoroacetic acid salt): 0.78 µg/mL; MIC values ([6]; trifluoroacetic acid salt): 0.2 µg/mL; MIC values ([7]; trifluoroacetic acid salt): 6.2 µg/mL; MIC values ([8]; trifluoroacetic acid salt): 0.02 µg/mL; MIC values ([9]; trifluoroacetic acid salt): 0.1 µg/mL; MIC values ([10]; trifluoroacetic acid salt): 0.2 µg/mL; MIC values ([11]; trifluoroacetic acid salt): 0.39 µg/mL; MIC values ([12]; trifluoroacetic acid salt): 0.2 µg/mL; MIC values ([13]; trifluoroacetic acid salt): 0.39 µg/mL; MIC values ([14]; trifluoroacetic acid salt): 0.39 µg/mL; MIC values ([15]; trifluoroacetic acid salt): 0.39 µg/mL; MIC values ([16]; trifluoroacetic acid salt): 0.1 µg/mL
CN1CCN(c2nc3c(-c4ccc(F)cc4)cc(C(=O)O)c(=O)n3cc2F)CC1 [Example 2, 3-Fluoro-9-(4-fluorophenyl)-2-(4-methylpiperazin-1-yl)-6H-6-oxo-pyrido[1,2-a]pyrimidine-7-carboxylic acid] | 25 (≈ 62.4 µM) | 0.78 (≈ 1.95 µM) | 0.39 (≈ 0.974 µM) | 25 (≈ 62.4 µM) | 0.78 (≈ 1.95 µM) | 0.39 (≈ 0.974 µM) | 6.2 (≈ 15.5 µM) | 12.5 (≈ 31.2 µM) | 6.2 (≈ 15.5 µM) | 0.78 (≈ 1.95 µM) | 25 (≈ 62.4 µM) | 50 (≈ 125 µM) | 0.39 (≈ 0.974 µM) | 0.2 (≈ 0.5 µM) | 0.39 (≈ 0.974 µM) | 3.1 (≈ 7.74 µM) | 25 (≈ 62.4 µM) | 6.2 (≈ 15.5 µM) | 6.2 (≈ 15.5 µM) | 0.78 (≈ 1.95 µM) | MIC values [3]: 25 µg/mL (≈ 62.4 µM); MIC values [13]: 3.1 µg/mL (≈ 7.74 µM); MIC values [14]: 12.5 µg/mL (≈ 31.2 µM); MIC values [26]: 0.39 µg/mL (≈ 0.974 µM); MIC values [27]: 0.78 µg/mL (≈ 1.95 µM); MIC values [15]: 6.2 µg/mL (≈ 15.5 µM); MIC values [28]: 0.05 µg/mL (≈ 0.125 µM); MIC values [29]: 25 µg/mL (≈ 62.4 µM); MIC values [30]: 0.78 µg/mL (≈ 1.95 µM); MIC values [16]: 0.78 µg/mL (≈ 1.95 µM)
CN1CCN(c2nc3c(-c4ccc(F)cc4)cc(C(=O)O)c(=O)n3cc2F)CC1 [Example 1, 3-Fluoro-9-(4-fluorophenyl)-2-(4-methylpiperazin-1-yl)-6H-6-oxo-pyrido[1,2-a]pyrimidine-7-carboxylic acid] | 25 (≈ 62.4 µM) | 0.78 (≈ 1.95 µM) | 0.39 (≈ 0.974 µM) | 25 (≈ 62.4 µM) | 0.78 (≈ 1.95 µM) | 0.39 (≈ 0.974 µM) | 6.2 (≈ 15.5 µM) | 12.5 (≈ 31.2 µM) | 6.2 (≈ 15.5 µM) | 0.78 (≈ 1.95 µM) | 25 (≈ 62.4 µM) | 50 (≈ 125 µM) | 0.39 (≈ 0.974 µM) | 0.2 (≈ 0.5 µM) | 0.39 (≈ 0.974 µM) | 3.1 (≈ 7.74 µM) | 25 (≈ 62.4 µM) | 6.2 (≈ 15.5 µM) | 6.2 (≈ 15.5 µM) | 0.78 (≈ 1.95 µM) | MIC values [13]: 3.1 µg/mL (≈ 7.74 µM); MIC values [14]: 12.5 µg/mL (≈ 31.2 µM); MIC values [27]: 0.78 µg/mL (≈ 1.95 µM); MIC values [15]: 6.2 µg/mL (≈ 15.5 µM); MIC values [28]: < 0.05 µg/mL; MIC values [29]: 25 µg/mL (≈ 62.4 µM); MIC values [16]: 0.78 µg/mL (≈ 1.95 µM)
CCc1cc(C(=O)O)c(=O)n2ccc(N3CCC(N)C3)cc12.Cl (centres unmarked) [Example 62, 8-(3-Amino-1-pyrrolidinyl)-1-ethyl-4H-quinolizin-4-one-3-carboxylic acid hydrochloride] | 3.1 | 12.5 | 6.2 | 25 | 12.5 | 0.05 | 25 | 25 | 6.2 | 12.5 | 50 | 25 | 3.1 | 3.1 | 3.1 | 25 | 12.5 | 25 | 25 | 6.2 | MIC values [13]: 6.2 µg/mL; MIC values [14]: 25 µg/mL; MIC values [26]: 3.1 µg/mL; MIC values [27]: 3.1 µg/mL; MIC values [15]: 6.2 µg/mL; MIC values [28]: 0.39 µg/mL; MIC values [29]: 25 µg/mL; MIC values [16]: 0.78 µg/mL
